According to patent US12691109B2, “Bifunctional aggregation-induced emission luminogen for monitoring and killing of multidrug-resistant bacteria” (The Hong Kong University of Science and Technology, priority 2018, dated 2026):

How the values were obtained:
Assay in all cases: Light-enhanced bacteria killing, plate counting method
Type in all cases: cell-based
MDR S. epidermidis = conditions: in darkness, 10 μM TriPE-NT
Protocol: (§1) FIGS. 15C-F are graphs depicting bacteria survival rates for bacteria that were incubated with TriPE-NT (10 μM) for 10 min, the bacteria suspensions (50 μL) were plated on agar plates and treated by white-light illumination (4 mW cm^−2) for 0, 2 and 30 min respectively. FIG. 15C is a graph plotting survival rate versus time of E. coli and MDR E. coli. FIG. 15D is a graph plotting survival rate versus time of K. pneumoniae and MDR K. pneumoniae. FIG. 15E is a graph plotting survival rate versus time of S. epidermidis and MDR S. epidermidis. FIG. 15F is a graph plotting survival rate versus time of S. aureus and MDR S. aureus.
(§2) The bacteria killing effect of TriPE-NT was evaluated on both wild and clinically isolated MDR bacteria by a traditional plate counting method. First, E. coli and S. epidermidis, as the representative of Gram-negative (G−) and Gram-positive (G+) bacteria, were used to determine the effective bactericidal concentration and illumination time. The bacteria were incubated with TriPE-NT (0, 5, 10 μM) for 0 and 10 min, the bacteria suspensions (50 μL) were plated on agar plates and treated by white-light illumination (4 mW cm^−2) for 2, 10 and 30 min respectively (FIGS. 16A-B). […] Thus, 10 μM TriPE-NT and light irradiation for 2 min or 30 min were set as experimental conditions in the following experiments.

MDR K. pneumoniae = tested on: MDR K. pneumoniae
Protocol: as §1, §2

S. aureus = tested on: S. aureus
Protocol: as §1, §2

K. pneumoniae = tested on: K. pneumoniae
Protocol: as §1, §2

MDR E. coli = tested on: MDR E. coli
Protocol: as §1, §2

MDR S. aureus = tested on: MDR S. aureus
Protocol: as §1, §2

[1] = 10 μM, white light 4 mW cm^−2, 30 min

In the case of `COc1ccc(C(=Cc2ccc(-c3ccc4c5c(cccc35)C(=O)N(CCCCn3c[n+](Cc5ccc(F)cc5F)cn3)C4=O)cc2)c2ccc(OC)cc2)cc1` [TriPE-NT], the “killing of MDR S. epidermidis” value (MDR S. epidermidis) is reported as “killed nearly all”, the “MDR K. pneumoniae killed” value (MDR K. pneumoniae; [1]) is reported as over 61% and the “survival rate of MDR K. pneumoniae” value (MDR K. pneumoniae; in darkness, 10 μM TriPE-NT) is reported as about 74.4±3.7%. The S. aureus killed (S. aureus; [1]) was over 98%, the “survival rate of S. aureus” value (S. aureus; in darkness, 10 μM TriPE-NT) was about 8.9±1.1% and the K. pneumoniae killed (K. pneumoniae; [1]) was over 90%. For the same molecule, the “survival rate of K. pneumoniae” value (K. pneumoniae; in darkness, 10 μM TriPE-NT) was about 59.9±6.5%, the “MDR E. coli killed” value (MDR E. coli; [1]) was “more than 96%” and the “survival rate of MDR E. coli” value (MDR E. coli; in darkness, 10 μM TriPE-NT) was about 14.1±1.4%. The “MDR S. aureus killed” value (MDR S. aureus; [1]) was over 97% and the “survival rate of MDR S. aureus” value (MDR S. aureus; in darkness, 10 μM TriPE-NT) was about 22.4±1.9%.
